Source: US20260152533A1, “COMBINATION INHIBITORS FOR TREATING FIBROSIS” (Memorial Sloan-Kettering Cancer Center, priority 2021, published 2026)

What was measured:
Type in all cases: cell-based, mouse
NIH-3T3 cells [1] = assay: Western blot of NIH-3T3 cells (collagen I, GCN2, ATF4, PC); details: for rescue of TGFβ-induced collagen I depletion: metabolite, 48 hours
Excerpt: (§1) PSCs were isolated from C57BL/6 mice by differential centrifugation as previously described^49 and their mesenchymal origin was validated by analyzing the expression of various mesenchymal and epithelial markers. MFBs were isolated from FVB/N mice by differential centrifugation as previously described^50. DB7 mouse breast cancer cells were obtained from Alexander Borowsky (University of California Davis Comprehensive Cancer Center, Sacramento, CA, USA) through an MTA to Ohio State University (OSU). KPC (Kras^LSL-G12D; Trp53^LSL-R172H; Pdx1-Cre) mouse PDAC cells were a gift from Scott Lowe (Memorial Sloan Kettering Cancer Center. (MSKCC)). All cells were cultured at 37° C. in 5% carbon dioxide (CO2) and 20% oxygen (O2) and were maintained in Dulbecco's Modified Eagles medium (DMEM) (25 mM D-glucose, 2 mM L-glutamine) supplemented with 10% fetal bovine serum (FBS) (Gemini), 100 units/ml penicillin and 100 μg/ml streptomycin. Primary PSC and MFB cells were kept in culture for no more than ten passages. Experiments with iCAFs and myCAFs were performed as previously described^29. In brief, qPSCs were generated by culturing PSCs in a dome of GFR Matrigel (Corning) in DMEM; iCAFs were generated by culturing PSCs in a dome of GFR Matrigel in DMEM conditioned by KPC cells for 48 h; myCAFs were generated by monolayer culture of PSCs. Differentiation was validated by analyzing the expression of iCAF/myCAF markers^29. For experiments with different glutamine concentrations, cells were seeded in regular DMEM and the medium was changed 5-6 hours later or the following day to glucose and glutamine-free DMEM supplemented with 10% dialyzed FBS (Gemini) and 20 mM D-glucose, 2 mM L-glutamine (100%), 0.4 mM L-glutamine (20%) or 0.2 mM L-glutamine (10%). All media were prepared by the Media Preparation Facility at MSKCC. Cells were verified as mycoplasma-free by the MycoAlert Mycoplasma Detection Kit (Lonza).
Lysates were generated by incubating cells or ground tumors in RIPA buffer (Millipore); […] of cleared lysate were analyzed by SDS-polyacrylamide gel electrophoresis (SDS-PAGE) as previously described^11. […] The following secondary antibodies were used: anti-rabbit horseradish peroxidase (HRP) (1:5,000; GE, NA934V), anti-mouse HRP (1:5,000; GE, NA931). Quantification of band intensities of collagen I relative to […] or vinculin in tumor allograft experiments was performed with Image Lab software v6.0 (Bio-Rad).

NIH-3T3 cells [2] = assay: tRNA charging assay, NIH-3T3 cells; details: 10% Gln, TGFβ 2 ng/mL, dm-αKG 5 mM with or without MSO 2 mM, 48 hours (FIG. 2A)
Procedure: Charging status of the indicated tRNA isodecoders was measured as previously described^20. In brief, Trizol-chloroform extracts were precipitated with 2.7× volumes of cold ethanol in the presence of 30 μg GlycoBlue (ThermoFisher) overnight. Samples were resuspended in 0.3 M acetate buffer (pH 4.5) with 10 mM ethylenediamine tetraacetic acid (EDTA) and precipitated overnight. Samples were resuspended in 10 mM acetate buffer with 1 mM EDTA. 2 μg of each RNA sample was treated with 10 mM of either sodium periodate (Sigma) (‘oxidized sample’) or sodium chloride (‘non-oxidized sample’) and incubated for 20 minutes at room temperature in the dark. Reactions were quenched with glucose for 15 minutes. Yeast Phe-tRNA (Sigma) was spiked into each sample, followed by ethanol precipitation. Samples were resuspended in 50 mM Tris buffer (pH 9) and incubated for 50 minutes at 37° C., quenched with acetate buffer and precipitated. […] Reverse transcription was performed with SuperScript IV reverse transcriptase (Thermo Scientific) according to the manufacturer's instructions, with a primer complementary to the DNA adaptor. cDNA samples were subjected to qPCR with tRNA isodecoder-specific primer pairs listed in Supplementary Table 1. Ct values obtained with primers specific for yeast Phe-tRNA were subtracted from Ct values obtained with isodecoder-specific primers. The charged fraction was calculated based on the relative difference between the delta-Ct value of a non-oxidized (representing total) and oxidized (representing charged) sample for each primer pair.

NIH-3T3 cells [3] = assay: Translation assay (OPP), NIH-3T3 cells; details: cells expressing human PC cDNA, 10% Gln, TGFβ, MSO 48 hours (FIG. 3K)
Procedure: Cells were treated as indicated and incubated with 20 μM O-propargyl-puromycin (OPP, Thermo Scientific) for the last 1 hour of the experiment. Cells were harvested by trypsinization and fixed with methanol at −20° C., followed by permeabilization with 0.5% Triton X-100 in phosphate-buffered saline (PBS).

[4] = tested on: pancreatic stellate cells (PSCs); assay: Western blot of PSCs; details: TGFβ-treated PSCs, low glutamine, MSO (FIGS. 9A-9B)
Excerpt: as §1, with “For experiments with different glutamine concentrations, cells were seeded in regular DMEM and the medium was changed 5-6 hours later or the following day to glucose and glutamine-free DMEM supplemented with 10% dialyzed FBS (Gemini) and 20 mM D-glucose, 2 mM L-glutamine (100%), 0.4 mM L-glutamine (20%) or 0.2 mM L-glutamine (10%). All media were prepared by the Media Preparation Facility at MSKCC. Cells were verified as mycoplasma-free by the MycoAlert Mycoplasma Detection Kit (Lonza).” left out
Lysates were generated by incubating cells or ground tumors in RIPA buffer (Millipore); […] of cleared lysate were analyzed by SDS-polyacrylamide gel electrophoresis (SDS-PAGE) as previously described^11. […] Quantification of band intensities of collagen I relative to […] or vinculin in tumor allograft experiments was performed with Image Lab software v6.0 (Bio-Rad).

NIH-3T3 cells [5] = assay: Collagen abundance in ECM derived from confluent NIH-3T3 cells; details: low glutamine and low glucose medium (FIGS. 12E and 12F)
Procedure: Culture plates were coated with 0.1% gelatin (Sigma) and treated with 1% glutaraldehyde (Sigma) and 1 M ethanolamine (Sigma). Confluent NIH-3T3 cells, MFBs or PSCs were grown for 6 days on coated plates in the presence of […] sodium ascorbate (Sigma) and treated as indicated, and the medium was replaced every other day. Plates were decellularized with 20 mM ammonium hydroxide/0.5% Triton-X 100 for 5 min on a rotating platform. Three times the volume of PBS was added, and ECM was equilibrated overnight at 4° C., followed by four additional PBS washes. For western blot, preheated sample buffer supplemented with 1 mM dithiothreitol (DTT) was added, ECM was scraped off and boiled, and proteins were separated by SDS-PAGE followed by immunoblotting. To measure collagen abundance, fibroblast-derived ECM was stained with the Picro Sirius Red Stain Kit (Abcam) according to the manufacturer's instructions. The stain was extracted with 0.1 M sodium hydroxide (NaOH) and optical density was measured at 550 nm using a microplate reader. Differences in cell number were controlled for by growing cells on separate plates under the same experimental conditions.

NIH-3T3 cells [6] = assay: Growth experiments, NIH-3T3 cells; details: 10% Gln, TGFβ, 0.2, 1 or 5 mM metabolite, 3 days
Excerpt: NIH-3T3 cells were obtained from ATCC (CRL-1658); 293 T cells were obtained from ATCC (CRL-3216). PSCs were isolated from C57BL/6 mice by differential centrifugation as previously described^49 and their mesenchymal origin was validated by analyzing the expression of various mesenchymal and epithelial markers. MFBs were isolated from FVB/N mice by differential centrifugation as previously described^50. DB7 mouse breast cancer cells were obtained from Alexander Borowsky (University of California Davis Comprehensive Cancer Center, Sacramento, CA, USA) through an MTA to Ohio State University (OSU). KPC (Kras^LSL-G12D; Trp53^LSL-R172H; Pdx1-Cre) mouse PDAC cells were a gift from Scott Lowe (Memorial Sloan Kettering Cancer Center. (MSKCC)). All cells were cultured at 37° C. in 5% carbon dioxide (CO2) and 20% oxygen (O2) and were maintained in Dulbecco's Modified Eagles medium (DMEM) (25 mM D-glucose, 2 mM L-glutamine) supplemented with 10% fetal bovine serum (FBS) (Gemini), 100 units/ml penicillin and 100 μg/ml streptomycin. Primary PSC and MFB cells were kept in culture for no more than ten passages. Experiments with iCAFs and myCAFs were performed as previously described^29. In brief, qPSCs were generated by culturing PSCs in a dome of GFR Matrigel (Corning) in DMEM; iCAFs were generated by culturing PSCs in a dome of GFR Matrigel in DMEM conditioned by KPC cells for 48 h; myCAFs were generated by monolayer culture of PSCs. Differentiation was validated by analyzing the expression of iCAF/myCAF markers^29. For experiments with different glutamine concentrations, cells were seeded in regular DMEM and the medium was changed 5-6 hours later or the following day to glucose and glutamine-free DMEM supplemented with 10% dialyzed FBS (Gemini) and 20 mM D-glucose, 2 mM L-glutamine (100%), 0.4 mM L-glutamine (20%) or 0.2 mM L-glutamine (10%). All media were prepared by the Media Preparation Facility at MSKCC. Cells were verified as mycoplasma-free by the MycoAlert Mycoplasma Detection Kit (Lonza).
A total of 0.2×10^5 cells/well were plated in 24-well culture plates and media was changed and treatments started 5-6 hours later. Cell numbers at the start of treatment (day 0 “d 0”) and 1, 2 and 3 days later were counted using the Multisizer 4e (Beckman) and normalized to the cell number at d 0. In co-culture assays, a fraction of the cell population was analyzed by flow cytometry for GFP expression, and the rest counted with the Multisizer 4e. The number of KPC-GFP cells was determined by multiplying the fraction of GFP+ cells with the total number of cells.

[7] = concentrations relevant in vivo (10 mM lactate, 0.1 mM pyruvate), low glutamine and low glucose (FIG. 6E)

In the case of `CC(=O)C(=O)[O-].[Na+]` [Pyruvate, sodium pyruvate], the “collagen 1 levels” value (NIH-3T3 cells [1]; [7]) is reported as “only lactate supplementation increased” and the “potency to increase collagen 1 levels, relative” value (NIH-3T3 cells [1]; low glutamine and low glucose (FIG. 6E)) is reported as “more potent than lactate”.
With `CS(=N)(=O)CC[C@H](N)C(=O)O` (stereo partly drawn) [MSO, methionine sulfoximine] the “restoration of collagen I levels by dm-αKG” value (NIH-3T3 cells [1]; PC-deleted cells, 10% Gln, dm-αKG plus MSO, 48 hours (FIG. 4I)) was “unable to restore”, the “restoration of collagen levels by dm-Glu and dm-αKG” value (NIH-3T3 cells [1]; TGFβ-treated NIH-3T3 cells, low glutamine, MSO (FIGS. 2C-2E)) was “prevented” and the “collagen I synthesis” value (NIH-3T3 cells [1]; low Gln (10%), no TGFβ, MSO 48 hours (FIG. 2J)) was “unable to maintain”. For the same molecule, the “charging of glutamine-tRNA” value (NIH-3T3 cells [2]) was “blocked”, the “increase of protein translation by PC overexpression” value (NIH-3T3 cells [3]) was “blocked” and the “restoration of collagen levels by dm-Glu and dm-αKG” value [4] was “prevented”.
In the case of `CC(O)C(=O)[O-].[Na+]` (stereo not drawn) [lactate, sodium lactate], the “ability of extracellular lactate to rescue collagen I” value (NIH-3T3 cells [1]; Ctrl or PC sgRNA cells, low glutamine and low glucose (FIG. 6H)) is reported as “PC-dependent”, the “collagen 1 levels” value (NIH-3T3 cells [1]; [7]) is reported as “increased” and the “collagen 1 levels” value (NIH-3T3 cells [1]; low glutamine (10%) and low glucose (1 mM), 48 hours (FIG. 6E)) is reported as “increased”. The “collagen levels in the ECM produced by confluent fibroblasts” value (NIH-3T3 cells [5]) was “increased”.
`COC(=O)[C@@H]1CCCN1` [m-Pro, L-proline-methylester, reference compound] was tested, and the “rescue of TGFβ-induced collagen I depletion” value (NIH-3T3 cells [1]; 10% Gln) was “not” and the “rescue of TGFβ-induced growth defect” value (NIH-3T3 cells [6]) was “not”.
In the case of `O=C(O)[C@@H]1CCCN1` [proline], the “rescue of TGFβ-induced collagen I depletion” value (NIH-3T3 cells [1]; 10% Gln) is reported as “did not rescue” and the “rescue of TGFβ-induced growth defect” value (NIH-3T3 cells [6]) is reported as “did not rescue”.
In the case of `NC(=O)C[C@H](N)C(=O)O` [Asparagine, asparagine], the “rescue of TGFβ-induced collagen I depletion” value (NIH-3T3 cells [1]; 10% Gln) is reported as “did not rescue” and the “rescue of TGFβ-induced growth defect” value (NIH-3T3 cells [6]) is reported as “did not rescue”.
